For this assay, the target named is Excitatory amino acid transporter 1 (Homo sapiens, UniProt P43003). In words: Substrate uptake by the Excitatory Amino Acid Transporter 1 (EAAT1, SLC1A3) as assessed by the fluorescent FLIPR membrane potential dye in HEK-293 JumpIN-SLC1A3 cells (PubChem AID: 1745864). The class given is functional, cell-based, HEK293.

Molecules are shown by their SMILES.

Sequence of Excitatory amino acid transporter 1 (P43003 whole entry): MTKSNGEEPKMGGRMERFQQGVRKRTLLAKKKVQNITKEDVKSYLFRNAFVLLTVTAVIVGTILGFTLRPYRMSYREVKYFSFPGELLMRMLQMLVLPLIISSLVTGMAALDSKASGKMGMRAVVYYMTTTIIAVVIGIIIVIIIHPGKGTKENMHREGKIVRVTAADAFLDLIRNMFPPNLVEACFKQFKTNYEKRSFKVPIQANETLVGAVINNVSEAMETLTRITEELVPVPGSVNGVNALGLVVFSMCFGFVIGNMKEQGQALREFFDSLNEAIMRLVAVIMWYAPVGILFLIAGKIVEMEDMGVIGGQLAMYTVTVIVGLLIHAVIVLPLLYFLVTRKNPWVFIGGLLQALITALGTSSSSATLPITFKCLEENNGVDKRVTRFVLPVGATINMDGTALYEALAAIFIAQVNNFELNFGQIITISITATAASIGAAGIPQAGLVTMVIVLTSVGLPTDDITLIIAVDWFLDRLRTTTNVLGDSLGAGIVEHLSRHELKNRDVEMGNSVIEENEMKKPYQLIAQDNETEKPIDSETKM

The term EC50 denotes the midpoint of the concentration-response curve. A high value points to lower potency in that assay. As to `N[C@@H](CS)C(=O)O` [CYSTEINE], the response was half-maximal at 376 µM (EC50).

Take `N[C@@H](CCC(=O)O)C(=O)O` [GLUTAMIC ACID]: a half-maximal response (EC50) required 16 µM.

(Values after ChEMBL document CHEMBL5209589, “Membrane potential based transport assay for SLC1A3 using HEK293 JumpIn SLC1A3 OE cells” (2022).)
